The values below are quoted from earlier work in patent US20220401509A1, “Composition For Improving Mental State, Production Method For Composition For Improving Mental State, And Use Of Fruit Of Eggplant For Improving Mental State” (SHINSHU UNIVERSITY, priority 2019, published 2022).

Molecules are shown by their SMILES.

Series [1] has as its system spontaneously hypertensive rats (SHRs). The settings on record: purified, single oral dose to SHR.
Another series concerns adult individuals. As to conditions: according to the "Foods with Function Claims" in Japan.

Turning to `CC(O)C(=O)OCC[N+](C)(C)C.[I-]` (centres unmarked) [lactoylcholine], the antihypertensive effect result in series [1] is reported as “had an antihypertensive effect”.

Regarding `NCCCC(=O)O` [GABA, γ-aminobutyric acid], in the series with adult individuals, the “effective dose for antihypertensive effect in adult individuals” value is reported as 12.3 mg/day.

As for `CCCC(=O)OCC[N+](C)(C)C` [butyrylcholine], the antihypertensive effect result in series [1] is recorded as “had an antihypertensive effect”.

As for `O=C(/C=C/c1ccc(O)c(O)c1)O[C@@H]1C[C@](O)(C(=O)O)C[C@@H](O)[C@H]1O` [CA, chlorogenic acid], in the series on adult individuals, the “effective dose for antihypertensive effect in adult individuals” value is reported as 271 mg/day.

Turning to `CCC(=O)OCC[N+](C)(C)C` [propionylcholine], the antihypertensive effect entry in series [1] was “had an antihypertensive effect”.
